The text below walks through data of patent US20230255943A1, “MMP-9 AND MMP-12 INHIBITION FOR TREATING SPINAL CORD INJURY OR RELATED INJURY TO NEUROLOGICAL TISSUE” (The University of Birmingham, priority 2020, published 2023).

Several values for one entry are separate records, joined by “and”; a condition that tells them apart may be missing. Equal entries are not always repeated. Structures can show the parent of a compound that is named as a salt.

Usually IC50 stands for the concentration that gives 50% inhibition.

Assay [1] has as its system J774A.1, RAW 264.7 and primary mouse peritoneal macrophages. The assay can be described thus: Transwell migration assay of macrophages. The conditions noted are these: J774A.1 and RAW 264.7, 3 h. It is filed as cell-based. On the procedure:
J774A.1 cells (#TIB-67; ATCC, Middlesex, UK) were cultured in DMEM supplemented with 10% FBS, 100 U/ml penicillin, 100 μg/ml streptomycin, and 0.25 μg amphotericin B. Cells were seeded in T75 tissue-culture flasks and maintained at 37° C. and 5% CO2. RAW 264.7 cells (#TIB-71; ATCC) were maintained in DMEM containing 10% FBS.
Resident peritoneal cells were harvested from adult C57BL/6 mice (6-8 weeks old) by injection of 10 ml of PBS using a 21G needle into the peritoneal cavity and harvesting the cell suspension, as described previously (Rosas M, Davies L C, Giles P J, Liao C T, Kharfan B, Stone T C, et aL. The transcription factor Gata6 links tissue macrophage phenotype and proliferative renewal. Science 2014; 344(6184): 645-8). Peritoneal cells were then centrifuged at 100×g for 10 min and the cell pellet resuspended in DMEM/F12 medium. Cell were incubated at 37° C., for 2 h and non-adherent cells were removed by gentle washing. Cells were expanded in DMEM/F12 medium containing 10% FBS. For migration assays, cells were grown in RPMI containing 0.02% BSA for 24 h to obtain quiescent cells prior to using them in Transwell migration assays as described below.
Migration assays were performed with J774A.1, RAW 264.7 and primary mouse peritoneal macrophages in 6.5 mm Transwell plates (ThermoFisher) with 8 μm pore inserts, as described previously (Green et al., 2012). Briefly, inserts were coated with rat tail type I collagen and 1×10^5 cells (J774A.1, RAW 264.7 or primary mouse macrophages) were resuspended in chemotaxis buffer (RMPI 1640 plus 0.02% BSA, (termed RPMI from herein)) and added to the upper chamber and incubated with migration medium, with or without known chemotactic factors MCP-1 (100 ng/ml) and PMA (100 nM), or AZD1236, GM6001, SD2590 and MMP-9 Inhibitor I (all used at 1, 10, 100, 1000 ng/ml) added to the lower chamber. Cells were allowed to migrate through the insert membrane for 3 h at 37° C., before washing inserts with PBS. Non-migrating cells remaining on the upper surface were removed with a cotton swab whilst the migrated cells on the insert were fixed, stained with Diff-Quick (#26096, Electron Microscopy Science, Hatfield, UK), and mounted on glass slides. Migration was measured visually by counting using a light microscope at 40× magnification. The mean number of cells in 10 random fields were calculated for each treatment by an experimenter masked to the treatment conditions. A migration index was calculated by dividing the number of cells that migrated in response to the chemokine by the number of cells that migrated randomly (RPMI medium) with a reference index>1, indicating chemotaxis.

For the next assay, the target named is rat MMP-9 (Rattus norvegicus, UniProt P50282). Description: Inhibition of rat MMP-9. It is filed as biochemical.
Sequence of rat MMP-9 (P50282 108-708): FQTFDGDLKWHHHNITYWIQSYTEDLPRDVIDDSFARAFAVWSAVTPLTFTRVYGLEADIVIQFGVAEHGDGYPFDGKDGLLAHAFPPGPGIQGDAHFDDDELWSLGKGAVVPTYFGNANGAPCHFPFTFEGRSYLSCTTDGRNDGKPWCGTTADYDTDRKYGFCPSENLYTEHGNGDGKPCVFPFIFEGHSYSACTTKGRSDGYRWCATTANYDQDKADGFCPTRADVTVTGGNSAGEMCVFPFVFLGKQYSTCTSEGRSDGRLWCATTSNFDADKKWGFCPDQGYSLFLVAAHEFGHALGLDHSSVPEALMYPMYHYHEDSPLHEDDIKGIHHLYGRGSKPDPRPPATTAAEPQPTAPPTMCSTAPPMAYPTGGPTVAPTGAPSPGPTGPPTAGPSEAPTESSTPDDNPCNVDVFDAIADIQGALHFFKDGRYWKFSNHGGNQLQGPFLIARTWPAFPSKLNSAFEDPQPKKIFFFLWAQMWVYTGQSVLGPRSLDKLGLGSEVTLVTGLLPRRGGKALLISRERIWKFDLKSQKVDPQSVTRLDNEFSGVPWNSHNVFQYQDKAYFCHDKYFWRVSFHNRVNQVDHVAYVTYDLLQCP
The next assay has as its target human MMP-12 (Homo sapiens, UniProt P39900). Description: Inhibition of human MMP-12 (IC50). In kind it is biochemical.
A further assay addresses human MMP-9 (Homo sapiens, UniProt P14780). The assay can be described thus: Inhibition of human MMP-9 (IC50). In kind it is biochemical.
A further assay has as its target rat MMP-12 (Rattus norvegicus, UniProt Q63341). Description: Inhibition of rat MMP-12. In kind it is biochemical.
The next assay has as its system DC injury. Description: Example 2: spinal cord water content as measure of injury-induced oedema. The conditions noted are these: in vivo. The procedure: The lesion site+3 mm either side for mice and the lesion site+5 mm either side for the rat DC model were dissected out and the water content of the spinal cord (as a measure of oedema) was determined at 3 days after DC and CC SCI, as described previously (S. Li, C. H. Tator, Effects of MK801 on evoked potentials, spinal cord blood flow and cord edema in acute spinal cord injury in rats. Spinal Cord 37, 820-832 (1999)). Spinal cords containing the lesion site were weighed on aluminium foil, dried at 105° C. for 24 hr, and re-weighed. The percent water content was calculated as: water content (%)=[(wet weight-dry weight)/wet weight]×100%.
Using similar techniques to those described in Example 1, the water content in the spinal cord as a measure of injury-induced oedema was determined for both AZD1236 & AZD3342 (see FIG. 20).

The test system of assay [2] is rats with DC crush injury. The assay can be described thus: Tape sensing and removal (sensory function) in rat DC model. In kind it is in vivo. The settings on record: over 6 weeks. The procedure:
The efficacy of oral AZD3342 in the DC injury model in adult Sprague-Dawley rat was also assessed. Animals were divided into 6 groups: (1), Sham (control); (2), DC crush injury+Vehicle; (3), DC crush injury+15 mg/kg AZD3342; (4), DC crush injury+75 mg/kg […]; (5), DC crush injury+375 mg/kg AZD3342; and (6), DC crush injury+Melatonin. Animals were dosed twice daily with oral AZD3342 or vehicle with the experimenters masked to the treatment conditions. These experiments were performed with n=6 rats/group and repeated on 2-3 independent occasions (total n=12-18 rats/group/test).
Functional testing after DC lesion and treatment was carried out as described previously (N. D. Fagoe, C. L. Attwell, R. Eggers, L. Tuinenbreijer, D. Kouwenhoven, J. Verhaagen, M. R. Mason, Evaluation of Five Tests for Sensitivity to Functional Deficits following Cervical or Thoracic Dorsal Column Transection in the Rat. PLoS One 11, e0150141 (2016)). […]
Tape removal test (sensory function): The tape removal test determines touch perception from the left hind paw. After holding animals with both hind-paws extended, the time it took for the animal to detect and remove a piece of tape of 15×15 mm (Kip Hochkrepp, Bocholt, Germany) affixed to the palm of the left hind-paw was recorded and used to calculate the mean sensing time.

Sequence of human MMP-12 (P39900 106-470): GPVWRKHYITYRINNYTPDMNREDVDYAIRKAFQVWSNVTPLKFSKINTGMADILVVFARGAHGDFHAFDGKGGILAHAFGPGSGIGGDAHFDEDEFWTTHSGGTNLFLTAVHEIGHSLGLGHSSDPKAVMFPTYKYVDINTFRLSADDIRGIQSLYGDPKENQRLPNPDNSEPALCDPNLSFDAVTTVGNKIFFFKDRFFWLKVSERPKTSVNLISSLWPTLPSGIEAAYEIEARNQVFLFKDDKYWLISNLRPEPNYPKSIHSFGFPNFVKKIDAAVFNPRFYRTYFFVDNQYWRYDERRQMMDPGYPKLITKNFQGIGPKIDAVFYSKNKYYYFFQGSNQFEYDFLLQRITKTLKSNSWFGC
Sequence of human MMP-9 (P14780 94-707): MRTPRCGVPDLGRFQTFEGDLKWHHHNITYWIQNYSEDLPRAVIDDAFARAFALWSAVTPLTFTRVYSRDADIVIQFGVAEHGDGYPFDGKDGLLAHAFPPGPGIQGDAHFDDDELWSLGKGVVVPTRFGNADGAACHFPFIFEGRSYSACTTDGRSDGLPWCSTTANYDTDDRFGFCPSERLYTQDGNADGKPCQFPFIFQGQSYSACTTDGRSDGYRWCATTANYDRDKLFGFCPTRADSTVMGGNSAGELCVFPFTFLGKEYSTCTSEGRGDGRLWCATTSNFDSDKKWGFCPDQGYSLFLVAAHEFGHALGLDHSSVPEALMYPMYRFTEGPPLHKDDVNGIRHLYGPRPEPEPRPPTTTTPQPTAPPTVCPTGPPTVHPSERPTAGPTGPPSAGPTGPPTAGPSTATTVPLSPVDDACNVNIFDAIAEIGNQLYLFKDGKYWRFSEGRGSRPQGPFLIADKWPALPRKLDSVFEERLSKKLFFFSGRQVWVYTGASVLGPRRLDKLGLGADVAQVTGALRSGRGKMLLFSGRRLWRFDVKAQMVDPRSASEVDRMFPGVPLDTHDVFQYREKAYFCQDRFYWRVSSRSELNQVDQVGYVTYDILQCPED
Sequence of rat MMP-12 (Q63341 102-465): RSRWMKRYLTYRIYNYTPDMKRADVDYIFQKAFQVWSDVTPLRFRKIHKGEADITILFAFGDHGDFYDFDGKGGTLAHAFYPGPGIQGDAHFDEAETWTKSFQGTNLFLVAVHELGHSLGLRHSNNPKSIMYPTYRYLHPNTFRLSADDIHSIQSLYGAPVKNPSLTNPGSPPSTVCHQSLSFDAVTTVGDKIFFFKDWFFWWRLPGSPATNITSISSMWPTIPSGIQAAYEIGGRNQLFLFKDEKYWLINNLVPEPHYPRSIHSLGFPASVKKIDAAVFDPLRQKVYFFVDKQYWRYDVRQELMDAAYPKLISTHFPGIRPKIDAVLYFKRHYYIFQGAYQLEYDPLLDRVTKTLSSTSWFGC

`CCN(CC)Cc1cc(C)c(N(Cc2ccccc2)S(=O)(=O)c2ccc(OC)cc2)c(C(=O)NO)c1` [MMP-9 Inhibitor I, reference compound]: the “macrophage migration (migration index, chemotaxis)” value in assay [1] is listed as “not affected”.
On to `COCCN1CCC(C(=O)NO)(S(=O)(=O)c2ccc(Oc3ccc(OC(F)(F)F)cc3)cc2)CC1` [SD2590, N-Hydroxy-1-(2-methoxyethyl)-4-[4-[4-(trifluoromethoxy)phenoxy]phenyl]sulfonyl]-4-piperidinecarboxamide hydrochloride, reference compound], for which the “macrophage migration (migration index, chemotaxis)” value in assay [1] is “not affected”.
`C[C@]1(CS(=O)(=O)N2CCC(Oc3ccc(Cl)cn3)CC2)NC(=O)NC1=O` [AZD3342, (5S)-5-[4-(5-chloro-pyridin-2-yloxy)-piperidine-1-sulfonylmethyl]-5-methylimidazolidine-2,4-dione]: the IC50 is 117 nM on rat MMP-9 (read-out: IC50 against rat MMP-9); 6 nM and 5.9 nM against human MMP-12; 10 nM against human MMP-9; 35 nM on rat MMP-12 (read-out: IC50 against rat MMP-12). In the assay with DC injury, the “DC injury-induced increase in water content (FIG. 20)” value was “completely suppressed”. Besides, the “sensory function (tape sensing and removal)” value in assay [2] is listed as “significantly improved”.
On to `CNC(=O)[C@H](Cc1c[nH]c2ccccc12)NC(=O)[C@@H](CC(=O)NO)CC(C)C` [GM6001, (2R)—N^4-Hydroxy-N^1-[(1S)-1-(1H-indol-3-ylmethyl)-2-(methylamino)-2-oxoethyl]-2-(2-methylpropyl)butanediamide, reference compound], for which the “macrophage migration (migration index, chemotaxis)” value in assay [1] was “not affected”.
For the molecule `C[C@]1(CS(=O)(=O)N2CC=C(C#Cc3cnc(C4CC4)nc3)CC2)NC(=O)NC1=O` [AZD1236], the “activity against rat MMP-9” value on rat MMP-9 is “not active”. The IC50 was found to be 6.1 nM against human MMP-12 and 4.5 nM on human MMP-9. Also, the “activity against rat MMP-12” value at rat MMP-12 is recorded as “not active”. Also, the “DC injury-induced increase in water content (FIG. 20)” value with DC injury is given as “completely suppressed”. The “macrophage migration (migration index, chemotaxis)” value in assay [1] is recorded as “no effect on chemotaxis”.
